Assay results as given in patent publication US11098040B2, “Compounds and methods of use” (Ferro Therapeutics, Inc., priority 2018, dated 2021).
Where two headings read alike, the source gives them in different places.

What was measured:
[1] = test system: MiaPaCa-2; assay: Cell viability assay (CellTiter Glo), pancreatic carcinoma MiaPaCa-2; format: cell-based; conditions: Homo sapiens, MIA PaCa-2; pancreatic carcinoma, 96 hours, CellTiter Glo; read-out: IC50 MiaPaCa-2
Procedure: (§1) Cell viability assay was performed to assess the potency of the compounds in human cancer cell lines KP4 (pancreatic ductal adenocarcinoma), MiaPaCa-2 (pancreatic carcinoma), AsPC-1 (pancreatic adenocarcinoma, ascites), 143B (osteosarcoma), and SJSA-1 (osteosarcoma). Selected compounds were also assayed in a human breast epithelial cell line MCF-10A, a nontumorigenic cell line as a control to assess differential activity. Cells at a density of 500-5,000 cells/well were seeded in 96-well plates and incubated at 37° C. overnight. A series of 9 different concentrations of compound stocks (500×) were created by 3-fold serial dilution in DMSO. These compounds were further diluted in culture media and then added to cells so that the final DMSO concentration was equal to 0.25% or less. After 96 hours of incubation, 50 μL of CellTiter Glo reagent (Promega) was added to each well and luminescence was measured after 10 minutes using EnVision (PerkinElmer). Compounds titrated from top concentration of up to 30 μM. The select compounds were tested initially from 30 μM as the top concentration in duplicates (range of 4.6 nM-30 μM). […] Luminescence from cells treated with DMSO alone was set as Max and % of inhibition was calculated as follows: Inhibition %=(Max-Sample value)/Max*100. Data was analyzed using XL-fit software (ID Business Solutions Ltd.). IC50, relative IC50, or % of top inhibition was calculated.
The results of the assay in the pancreatic cell lines are given in Table 15a for PANC1, Table 15b for MiaPaCa-2, and Table 15c for AsPC-1.

[2] = test system: MCF-10A; assay: Cell viability assay (CellTiter Glo), non-tumorigenic breast epithelial cell line MCF-10A; format: cell-based; conditions: Homo sapiens, 96 hours
Procedure: as §1
Paclitaxel was used as the positive control for cytotoxicity.

[3] = test system: SJSA-1; assay: Cell proliferation (Alamar Blue) assay, SJSA-1 osteosarcoma, with/without ferrostatin; format: cell-based, human; conditions: Homo sapiens, SJSA-1, Cell Line SJSA-1; read-out: IC50
Summary of the method: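 Cells seeded at 5000/well, 16-24 h, then exposed 24 h at 37° C to compound, 10-0.0005 μM in 3-fold dilutions, 1% DMSO final. Alamar Blue fluorescence (ex 540/em 590 nm) read after 1.5 h; IC50 from variable-slope sigmoidal fit.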

[4] = test system: 786-O; assay: Cell proliferation (Alamar Blue) assay, 786-O renal cell carcinoma, with/without ferrostatin; format: cell-based; conditions: Homo sapiens, 786-0, Cell Line 786-O; read-out: IC50
Procedure: Cell viability assay was performed to assess the potency of the compounds in human cancer cell lines 786-O (renal cell carcinoma) and SJSA-1 (osteosarcoma). Additional cell lines, such as those described above in Example 4 as well as various others, e.g., pancreatic cancer cell lines (Panc 02.13, BxPC-3, Panc 12, Panc 02.03, Panc 6.03, PSN-1, HPAC, and Capan-1) and prostate cancer cell lines (PC-3, DU145, 22Rv1, NCI-H660, BPH1, LNCaP, BM-1604, and MDA PCa 2b), were tested for select compounds as shown in Table 25.
Cells (SJSA-1, 786-O and A431) were seeded (5000 cells/100 μL/well) in 96-well tissue culture plate and incubated at 37° C./5% CO2 for 16-24 hours. The cells were then treated with compounds (25 μL of 5×). The compound concentrations were 10-0.0005 μM prepared in 3-fold serial dilutions with final DMSO concentration of 1%. The plates were then incubated for 24 h at 37° C./5% CO2 in a moist environment. Then Alamar Blue™ reagent (final concentration 1×-12.5 μL) was added to each well and incubated for 1.5 hours at 37° C./5% CO2. The plates were read on fluorescence reader at 540 nm excitation and 590 nm emission wavelengths. The IC50 values were subsequently determined using a sigmoidal dose-response curve (variable slope) in GraphPad Prism® 5 software.
Studies have shown that lipophilic antioxidants, such as ferrostatin, can rescue cells from GPX4 inhibition-induced ferroptosis. For instance, mesenchymal state GPX4-knockout cells can survive in the presence of ferrostatin, however, when the supply of ferrostatin is terminated, these cells undergo ferroptosis (see, e.g., Viswanathan et al., Nature 547:453-7, 2017). […] Accordingly, the ability of a molecule to induce ferroptotic cancer cell death, and that such ability is admonished by the addition of ferrostatin, is clear indication that the molecule is an GPX4 inhibitor.

[5] = PK profile, IV plasma concentration and PK parameters; format: in vivo; conditions: Balb/C nude, mouse
Procedure: The PK profiles of compounds 148, 149, 150, 156 and 169 are shown below. Compound 156 was formulated in 30% Kolliphor EL (Cremophor EL) in water and compounds 148, 149, 150 and 169 were formulated in 30% Kolliphore EL with 1% poloxamar 407 in water. All compounds were dosed at 5 mg/kg. Blood samples were collected at various time points and analyzed using the method described above.

[6] = test system: A549; assay: Cell viability assay, A549 cells; format: cell-based; conditions: Homo sapiens, A549, Cell Line A549; read-out: IC50
Procedure: Example 5: Inducer Compound Effect on Growth of A549 and KP4 Cells
as §1, with “in” for “in human”, “line” for “lines”, “adenocarcinoma).” for “adenocarcinoma), MiaPaCa-2 (pancreatic carcinoma), AsPC-1 (pancreatic adenocarcinoma, ascites), 143B (osteosarcoma), and SJSA-1 (osteosarcoma). Selected compounds were also assayed in a human breast epithelial cell line MCF-10A, a nontumorigenic cell line as a control to assess differential activity.”, “1,000-10,000” for “500-5,000”, “All” for “Compounds titrated from top concentration of up to 30 μM. The select”, “calculated. […]” for “calculated.”

[7] = iv, 5 mg/kg, 30% Kolliphore EL with 1% poloxamar 407 in water
[8] = iv, 5 mg/kg, 30% Kolliphor EL in water (Table 10b)

Row | IC50 [3] [nM] | IC50 [4] [nM] | IC50 [6] [nM] | SMILES | other results
1 |  |  |  | CN(C)C(=O)[C@H]1Cc2c([nH]c3ccccc23)[C@@H](c2ccc([Si](C)(C)C)cc2)N1C(=O)CCl [Example 67a] | IC50 [1]: 1360 nM
2 |  |  |  | CN(C)C(=O)[C@H]1Cc2c([nH]c3ccccc23)[C@H](c2ccc(C(=O)NC[Si](C)(C)C)cc2)N1C(=O)CCl [Example 66] | IC50 [1]: 159 nM
3 |  |  |  | COC(=O)[C@H]1Cc2c([nH]c3ccccc23)[C@H](c2ccc(C(=O)OCC3CCCCC3)cc2)N1C(=O)CCl [Example 89] | IC50 [2]: 420 nM
4 | 8 | 9 |  | C[C@H]1Cc2c([nH]c3ccccc23)[C@H](c2ccc(NC34CC5CC(CC(C5)C3)C4)cc2)N1C(=O)CCl [Compound 150, 1-((1S,3S)-1-(4-(((3R,5R,7R)-adamantan-1-yl)amino)phenyl)-3-methyl-1,3,4,9-tetrahydro-2H-pyrido[3,4-b]indol-2-yl)-2-chloroethan-1-one] | C0 [5, 7]: 3400 ng/mL; Cmax [5, 7]: 2260 ng/mL; clearance [5, 7]: 113 mL/min/kg; AUC(0-t) ([5]; iv, 5 mg/kg, 30% Kolliphore EL with 1% poloxamar 407 in water, read-out: AUC0-t): 735 ng·h/mL; AUC(0-inf) ([5]; iv, 5 mg/kg, 30% Kolliphore EL with 1% poloxamar 407 in water, read-out: AUC0-∞): 740 ng·h/mL; Vd ([5]; iv, 5 mg/kg, 30% Kolliphore EL with 1% poloxamar 407 in water, read-out: Vd): 3.25 L/kg; Vd ([5]; iv, 5 mg/kg, 30% Kolliphore EL with 1% poloxamar 407 in water, read-out: Vss): 1.64 L/kg; half-life ([5]; iv, 5 mg/kg, 30% Kolliphore EL with 1% poloxamar 407 in water, time points considered 0.25-2 h): 19.8 min
5 | 42.2 | 75.1 | 4300 | C#CC(=O)N1[C@@H](CCCC)Cc2c([nH]c3c(F)cc(F)cc23)[C@@H]1c1ccc(F)cc1 [Compound 156] | concentration at 5 min ([5]; 5 mg/kg IV, BID q12, post 2nd dose, 5 min, 30% Kolliphor EL in water): 18500 ng/mL; concentration at 0.25 h ([5]; 5 mg/kg IV, BID q12, post 2nd dose, 0.25 h, 30% Kolliphor EL in water): 4640 ng/mL; concentration at 0.5 h ([5]; 5 mg/kg IV, BID q12, post 2nd dose, 0.5 h, 30% Kolliphor EL in water): 984 ng/mL; concentration at 1 h ([5]; 5 mg/kg IV, BID q12, post 2nd dose, 1 h, 30% Kolliphor EL in water): 302 ng/mL; concentration at 2 h ([5]; 5 mg/kg IV, BID q12, post 2nd dose, 2 h, 30% Kolliphor EL in water): 105 ng/mL; concentration at 4 h ([5]; 5 mg/kg IV, BID q12, post 2nd dose, 4 h, 30% Kolliphor EL in water): 45.9 ng/mL; concentration at 8 h ([5]; 5 mg/kg IV, BID q12, post 2nd dose, 8 h, 30% Kolliphor EL in water): 24.4 ng/mL; C0 [5, 8]: 38200 ng/mL; MRT inf [5, 8]: 33.2 min; clearance [5, 8]: 14.5 mL/min/kg; half-life [5, 8]: 180 min; AUC(0-inf) ([5]; iv, 5 mg/kg, 30% Kolliphor EL in water (Table 10b), read-out: AUCInf): 5920 ng·h/mL; AUC(0-t) ([5]; iv, 5 mg/kg, 30% Kolliphor EL in water (Table 10b), read-out: AUClast): 5810 ng·h/mL; Vd ([5]; iv, 5 mg/kg, 30% Kolliphor EL in water (Table 10b), read-out: Vss): 0.48 L/kg; Vd ([5]; iv, 5 mg/kg, 30% Kolliphor EL in water (Table 10b), read-out: Vz): 3.72 L/kg
6 | 1160 | 1260 | 8620 | C[C@H]1Cc2c([nH]c3ccccc23)[C@H](C23CC(F)(C2)C3)N1C(=O)CCl [Compound 226] | 
7 | 67.7 | 78.8 | 3220 | C#CC(=O)N1[C@@H](c2ccc(F)cc2)c2[nH]c3ccccc3c2C[C@@H]1C1CCCC1 [Compound 177] | 
8 | 115 | 170 | 3350 | C[C@H]1Cc2c([nH]c3ccccc23)[C@H](c2ccc(S(F)(F)(F)(F)F)cc2)N1C(=O)CCl [Compound 222] | 
9 | > 30000 | > 30000 | > 30000 | C=C(F)C(=O)N1[C@@H](CCCC)Cc2c([nH]c3ccccc23)[C@@H]1c1ccc(F)cc1 [Compound 186] | 
10 | 32.4 | 61.9 | 4410 | C#CC(=O)N1[C@@H](CCCC)Cc2c([nH]c3ccccc23)[C@@H]1c1ccc(F)cc1 [Compound 205] | 
11 | 81 | 113 | 8520 | C#CC(=O)N1[C@@H](CCCC)Cc2c([nH]c3ccc(OC)cc23)[C@@H]1c1ccc(F)cc1 [Compound 155] | 
12 | 86.8 | 214 | 13300 | C#CCOc1ccc2[nH]c3c(c2c1)C[C@H](C)N(C(=O)CCl)[C@H]3c1ccc(NC23CC4CC(CC(C4)C2)C3)cc1 [Compound 207] | 
13 |  |  |  | COC(=O)[C@H]1Cc2c([nH]c3ccccc23)[C@H](c2ccc(C(=O)OCC3(C)CC3)cc2)N1C(=O)CCl [Example 84] | IC50 [2]: 480 nM
14 | 90 | 181 | 11200 | C#CC(=O)N1[C@@H](c2cc(F)cc(F)c2)c2[nH]c3ccccc3c2C[C@@H]1C [Compound 198] | 
15 | 120 | 194 | 14200 | C#CC(=O)N1[C@@H](c2ccc(C3CCOCC3)cc2)c2[nH]c3ccccc3c2C[C@@H]1C [Compound 192] | 
16 | 190 | 642 | 14800 | C#CC(=O)N1[C@@H](c2c(F)cccc2F)c2[nH]c3ccccc3c2C[C@@H]1C [Compound 201] | 
17 | 338 | 529 | 19500 | C#CC(=O)N1[C@@H](c2ccc(F)c(F)c2)c2[nH]c3ccccc3c2C[C@@H]1C [Compound 199] | 
18 | 163 | 337 | 22200 | C#CC(=O)N1[C@@H](CCCC)Cc2c([nH]c3ccccc23)[C@@H]1c1ccc(N2CCOCC2)cc1 [Compound 216] | 
19 |  |  |  | CC(=O)O[C@H]1C(=O)[C@@]2(C)[C@H]([C@H](OC(=O)c3ccccc3)[C@]3(O)C[C@H](OC(=O)[C@H](O)[C@@H](NC(=O)c4ccccc4)c4ccccc4)C(C)=C1C3(C)C)[C@]1(OC(C)=O)CO[C@@H]1C[C@@H]2O [paclitaxel, Paclitaxel, reference compound] | IC50 [2]: 1 nM
